Experiments:
[1] = tested on: Wistar rat; test: Social recognition in the Wistar rat; type: in vivo; details: 10 mg/kg IP, second encounter after 2 hours
Excerpt: Initially described in 1982 (J. Comp. Physiol., 1982, 96, 1000-1006), the social recognition test has subsequently been proposed by various authors (Psychopharmacology, 1987, 91, 363-368; Psychopharmacology, 1989, 97, 262-268) for studying the mnemocognitive effects of new compounds. The test is based on the natural expression of the olfactory memory of the rat and its natural tendency to forget and allows evaluation of memorisation, by recognition of a young congeneric animal, by an adult rat. A young rat (21 days), taken at random, is placed for 5 minutes in the cage housing an adult rat. With the aid of a video device, the experimenter observes the social recognition behaviour of the adult rat and measures its overall duration. The young rat is then removed from the adult rat's cage and is placed in its own cage until the second introduction. The adult rat is given the compound under test by the intraperitoneal route and, after 2 hours, is again brought into the presence (5 minutes) of the young rat. The social recognition behaviour is then observed again and its duration measured. The assessment criterion is the difference (T2−T1), expressed in seconds, between the “recognition” times of the 2 encounters.

[2] = tested on: release of acetylcholine in the prefrontal cortex; test: In vivo measurement of the release of acetylcholine by intra-cortical microdialysis in the conscious Wistar rat; set-up: dose or concentration left out as unconfirmed; details: one hour after administration
Protocol: The systemic administration of nicotine and nicotinic agonists causes an increase, in vivo, of acetylcholine in various regions of the brain (Neurochem. Res., 1996, 21, 1181-1186; Eur. J. Pharmacol., 1998, 351, 181-188; Br. J. Pharmacol., 1999, 127, 1486-1494). A microdialysis probe is implanted in the median prefrontal cortex of male Wistar rats. Six or seven days after they have been implanted, the probes are perfused with Ringer's solution (NaCl 147 mM, KCl 2.7 mM, CaCl2 1.2 mM, MgCl2 1 mM, neostigmine 20 nM) at a flow rate of 1 μl/min, the animal being free to move. After 2 hours in the animal quarters, the product under test is administered by the intraperitoneal route. A group of control animals receives the solvent used for the product. The dialysates (30 μl) are then collected every 30 minutes for 4 hours in order to measure the cortical extra-synaptic concentrations of acetylcholine by means of HPLC with amperometric detection. The results are expressed in pg of acetylcholine/dialysate, and inter-group comparisons are carried out by means of analysis of variance using 2 factors (treatment×time), with measurements being repeated over time.

[3] = biological target: T1, type α4β2 central nicotinic receptors (Rattus norvegicus, UniProt P09483+P12390); test: Displacement of binding of [3H]-cytisine on type α4β2 nicotinic receptors of rat brain; details: rat brain membranes
T1 construct: from tissue; host or cells: rat brain membranes
Protocol: This study, carried out according to the technique described in Molec. Pharmacol., 1990, 39; 9-12, is aimed at determining the affinity of compounds of the present invention for type α4β2 central nicotinic receptors.
Membranes (250 μg/ml) of rat brain are incubated (2 hours, 20° C.) in the presence of a series of concentrations (0.01-10 μM) of each compound of the present invention (diluted starting from a 10 mM stock solution in DMSO) and [^3H]-cytisine (S.A.: 1184 GBq/mmol: 2 nM) in phosphate buffer (NaH2PO4 20 mM, pH 7.4); final volume: 250 μl. The non-specific binding is determined by incubating membranes in the presence of 10 μM of (−)nicotine. The affinity of the compounds of the present invention for type α4β2 central nicotinic receptors is characterised by determination of the Ki.

[4] = tested on: NMRI mouse; test: Abdominal contractions induced by phenyl-p-benzoquinone (PBQ) in the NMRI mouse; type: in vivo; details: 10 mg/kg IP
Protocol: Intraperitoneal administration of an alcoholic solution of PBQ causes abdominal cramps in the mouse (Proc. Soc. Exp. Biol., 1957, 95, 729-731). The cramps are characterised by repeated contractions of the abdominal musculature, accompanied by extension of the hind limbs. Most analgesics antagonise these abdominal cramps (Brit. J. Pharmacol. Chem., 1968, 32, 295-310). At t=0 min., the animals are weighed and the compound being studied is administered by the IP route. A group of control animals is given the solvent used for the compound. At t=30 min., an alcoholic solution of PBQ (0.2%) is administered by the IP route in a volume of 0.25 ml/mouse. Immediately after administration of the PBQ, the animals are placed in cylinders of plexiglass (L=19.5 cm; I.D.=5 cm). From t=35 min. to t=45 min., the animals' reaction is observed and the experimenter notes the total number of abdominal cramps per animal. The results are expressed as the percentage inhibition of the number of abdominal cramps measured in the control animals, at the active dose of the compound studied.

T1 sequence (P09483 31-630): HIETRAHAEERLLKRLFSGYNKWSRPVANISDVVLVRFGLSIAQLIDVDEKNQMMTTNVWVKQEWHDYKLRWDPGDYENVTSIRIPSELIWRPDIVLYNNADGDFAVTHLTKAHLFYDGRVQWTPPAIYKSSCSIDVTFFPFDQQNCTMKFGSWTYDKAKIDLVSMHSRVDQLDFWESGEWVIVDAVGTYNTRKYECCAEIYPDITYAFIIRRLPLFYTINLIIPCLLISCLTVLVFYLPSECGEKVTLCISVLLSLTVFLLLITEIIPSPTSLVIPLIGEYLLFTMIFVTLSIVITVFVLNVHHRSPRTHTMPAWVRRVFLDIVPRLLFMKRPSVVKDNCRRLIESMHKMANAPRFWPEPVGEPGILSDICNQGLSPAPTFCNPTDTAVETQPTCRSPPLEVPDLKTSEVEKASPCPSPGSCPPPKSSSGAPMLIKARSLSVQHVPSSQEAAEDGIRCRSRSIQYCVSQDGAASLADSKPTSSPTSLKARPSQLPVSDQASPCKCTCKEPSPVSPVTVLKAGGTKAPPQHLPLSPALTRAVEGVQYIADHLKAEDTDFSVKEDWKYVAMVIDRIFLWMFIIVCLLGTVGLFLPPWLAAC
T1 sequence (P12390 25-500): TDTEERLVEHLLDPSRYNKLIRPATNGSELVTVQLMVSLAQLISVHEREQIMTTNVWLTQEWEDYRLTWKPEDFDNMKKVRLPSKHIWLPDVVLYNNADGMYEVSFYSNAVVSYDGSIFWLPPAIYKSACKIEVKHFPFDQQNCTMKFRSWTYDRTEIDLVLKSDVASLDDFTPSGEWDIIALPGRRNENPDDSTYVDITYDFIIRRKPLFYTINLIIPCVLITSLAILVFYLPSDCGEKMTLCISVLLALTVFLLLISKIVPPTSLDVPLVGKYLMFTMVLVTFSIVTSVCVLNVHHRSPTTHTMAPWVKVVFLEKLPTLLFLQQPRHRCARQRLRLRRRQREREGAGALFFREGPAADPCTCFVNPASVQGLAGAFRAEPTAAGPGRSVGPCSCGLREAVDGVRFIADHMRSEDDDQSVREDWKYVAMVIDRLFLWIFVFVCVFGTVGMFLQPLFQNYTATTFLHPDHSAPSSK

melting point | SMILES | also measured
< 75 °C | C[C@H]1C[C@@]1(N)COc1cccnc1.Cl.Cl (single isomer, unassigned) | 
115 to 118 °C | CNC1(COc2cccnc2)CC1(C)C.O=C(O)/C=C/C(=O)O.O=C(O)/C=C/C(=O)O (single isomer, unassigned) [Example 27] | 
136 to 138 °C | C[C@H]1C[C@]1(COc1ccc(Cl)nc1)N(C)C.Cl (single isomer, unassigned) | 
124 to 127 °C | CNC1(COc2cccnc2)CC1(C)C.O=C(O)/C=C/C(=O)O.O=C(O)/C=C/C(=O)O (single isomer, unassigned) [26] | 

Further lines, the molecule ahead of its results:

SMILES | melting point | also measured
CN[C@@]1(COc2cccnc2)C[C@@H]1C.Cl.Cl (single isomer, unassigned) [Example 2, (1S,2S)- or (1R,2R)-(−)-N,2-dimethyl-1-[(3-pyridinyloxy)methyl]cyclopropanamine Dihydrochloride] | 174 to 176 °C | difference (T2−T1) between recognition times [1]: 38 s; increase in the release of acetylcholine in the prefrontal cortex [2]: +86%; Ki [3]: 0.069 µM
C[C@H]1C[C@@]1(N)COc1ccc(Cl)nc1.Cl (single isomer, unassigned) [Example 15, (1S,2S)- or (1R,2R)-(+)-1-{[(6-chloro-3-pyridinyl)oxy]methyl}-2-methylcyclopropanamine Hydrochloride] |  | reduction of the number of abdominal cramps caused by PBQ [4]: −69%
CN[C@@]1(COc2cccnc2)C[C@H]1C.Cl.Cl (single isomer, unassigned) [20] | 69 to 72 °C | 
C[C@H]1C[C@@]1(N)COc1ccc(Cl)nc1.Cl (single isomer, unassigned) | 183 to 186 °C | 
CN[C@@]1(COc2ccc(Cl)nc2)C[C@@H]1C.Cl (single isomer, unassigned) [11] | 185 to 190 °C | 
CN[C@@]1(COc2cccnc2)C[C@H]1C.Cl.Cl (single isomer, unassigned) [21] | 71 to 74 °C | 
CN[C@@]1(COc2ccc(Cl)nc2)C[C@@H]1C.Cl (single isomer, unassigned) [12] | 188 to 192 °C | 

Source: patent US7348344B2, “Polysubstituted 1,1-pyridyloxycyclopropanamine compounds” (Les Laboratoires Servier, priority 2005, dated 2008)
